Test results as given in patent US11952360B2, “Dibenzothiophene compounds” (Saint Louis University, priority 2019, dated 2024).

What was measured:
[1] = Fluorescence excitation/emission spectra and fluorescent quantum yield (single point method, naphthalene standard); format: physicochemical; settings: for λex (excitation maxima): Measured in CAN; for λem (emission maxima) / φ (fluorescent quantum yield, single point method): Measured in CAN (acetonitrile); for φ (fluorescent quantum yield, single point method): naphthalene standard, absorbance 0.041 at 250 nm
Method: (§1) All chemicals were obtained from Alfa Aesar, Oakwood Chemical, Ark Pharm, ThermoFisher Scientific, and Sigma-Aldrich. They were used without further purification. Flash chromatography was performed using a Biotage Horizon with silica gel (SiliaFlash P60) purchased from SiliCycle. ^1H and ^13C NMR spectra were gathered on a Bruker DRX-400 in either DMSO-d6 or CDCl3. High-resolution mass spectra were measured using a ThermoScientific Q Exactive Orbitrap equipped with a Nano ESI ionization source. Absorption spectra were recorded using a Shimazdu UV-1800 UV-Vis spectrophotometer using samples contained in 10×10 mm quartz cell at a concentration of 0.01 mM. Fluorescence spectra were gathered on a Shuimazdu RF-5301 PC in a 10×10 mm quartz cuvette.
(§2) The two dyes, upon their successful synthesis and isolation, had their photophysical data gathered beginning with absorbance, which was measured through the visible and ultraviolet region. Absorbance spectra were gathered using 0.01 mM solutions of the respective compound in HPLC grade acetonitrile. The spectra are nearly identical. This was of no surprise as the chromophore is the same on both molecules; however, 9 has a more substantial absorbance than 4 with a respective molar absorptivity of 66,000 M^−1cm^−1 and 51,700 M^−1 cm^−1. The absorbance determination was followed by the fluorescence emission and excitation spectra being gathered using solutions where the absorbance of the respective compound was 0.041 at 250 nm in acetonitrile (FIG. 1). This was done to save material as the same solutions were then used to determine the fluorescent quantum yield. The excitation spectra of 4 and 9 followed the same pattern, though the two were slightly offset from one another when overlaid with respect to the x-axis.
The fluorescent quantum yield was then determined by the single point method with Eq. 1.
Naphthalene was used as the standard where it was also made into a solution with acetonitrile at a concentration which allowed the absorbance to be 0.041 at 250 nm. The fluorescent quantum yields of 4 and 9 were determined to be 0.40 and 0.67, respectively.

HeLa cells [2] = assay: Fluorescence imaging of HeLa cells without co-stain; format: cell-based; settings: 5.0 uM dye, approximately 2 hours, no co-stain
Method: (§3) All images were captured with a Leica DM 400 B microscope with a DFC3000G camera (Leica Microsystems, Germany) and 63× oil immersion or 40× lenses. HeLa cells were staged according to the aforementioned methods. Leica LASX Core Software (Leica Microsystems, Germany) was used to acquire the images. All images were processed using ImageJ. The Pearson correlation coefficient was calculated using the image of a single cell using an ImageJ plugin called Colocalization Finder by Christophe Laummonerie and Jerome Mutterer of Institut de Biologie Moleculaire des Plantes.
Sterile glass poly-D-lysine coated #1.5 cover slips (NeuVitro), pre-incubated with culture medium, were placed in sterile 6-well plates. A single cell suspension of the HeLa (cervical cancer cell) cell line was prepared at 5×10^4 cells mL^−1 in the appropriate medium. Volumes of 2.0 mL were pipetted into each of the wells containing the coverslips. The 6-well plate was left overnight at 37.0° C. in a 5.0% CO2 incubator. Following the overnight incubation, the plate was aspirated dry and then PBS, containing the drug (at 5.0 uM and 0.10% DMSO) in a volume of 2.0 mL, was gently pipetted onto the cell monolayers attached to the glass cover slips. Cells on the cover slips were exposed to the dye for approximately 2 hours in the incubator at 37.0° C. in a 5.0% CO2. […]

[3] = UV/visible absorbance spectra in acetonitrile; format: physicochemical; settings: for molar absorptivity: 0.01 mM solutions in HPLC grade acetonitrile; for λabs (absorbance maxima): Measured in CAN
Method: as §1, §2

HeLa cells [4] = assay: Metabolic proliferation (MTS) assay, toxicity in HeLa cells; format: cell-based
Method: HeLa cells were cultured in RPMI (ThermoFisher) supplemented with 10% FBS (ThermoFisher) and 1% penicillin-streptomycin (ThermoFisher 10000 U/mL). Cells (5000 cells/well in 100 μL) were plated in a 96-well culture plate (Greiner) and incubated for […]. Fifty microliters of the compound dissolved in complete media (final DMSO concentration 1%) at final concentrations of 100 μM, 10 μM, 1 μM, 100 nM, 10 nM, and 1 nM were added to the appropriate wells. After incubation of the cells at 37° C. in a humidified atmosphere of 5% CO2 for 120 h, the cells were stained and incubated with MTS reagent (Promega) for 2 h to determine cell viability. The absorbance of each well was taken at 490 nm using a multimode plate reader (FlexStation 3, Molecular Devices, San Diego, Calif.). GraphPad Prism was used to analyze data to determine the percent viability. […] Quadruplicate measurements were performed for each compound.
The toxicity of 4 and 9 was determined in HeLa cells. The HeLa cells were treated with concentrations of the respective dye varying between 1 nm and 100 μM for 72 hours.

HeLa cells [5] = assay: Fluorescence imaging of HeLa cells with CellMask Orange co-stain (colocalization); format: cell-based; settings: for cellular localization: HeLa cells co-stained with CellMask Orange, 10 minutes; for Pearson correlation coefficient with CellMask Orange: HeLa cells, 10 minutes incubation, single cell image, DAPI vs Cy-5 filter sets
Method: as §3
To further optimize staining and understand the localization of the dyes in HeLa cells, a co-stain was introduced to the cells with the dyes while also utilizing a shorter incubation time. Sterile glass poly-D-lysine coated #1.5 cover slips (NeuVitro), pre-incubated with culture medium, were placed in sterile 6-well plates. A single cell suspension of the HeLa (cervical cancer cells) cell line was prepared at 5×10^4 cells ml-1 in the appropriate medium. Volumes of 2.0 mL were pipetted into each of the wells containing the coverslips. The 6-well plate was left overnight at 37.0° C. in a 5.0% CO2 incubator. Following the overnight incubation, the plate was aspirated and PBS, containing the CellMask Orange (ThermoFischer Scientific) (at 1000× dilution with 0.10% DMSO) in a volume of 1.8 mL, was gently pipetted onto the cell monolayers attached to the glass cover slips. To the CellMask doped PBS 200 μl of 4 or 9 at 50 μM was added to the respective well. Cells on the cover slips were exposed to the dye for approximately 10 minutes. Cells were washed with PBS and treated with 4.0% paraformaldehyde solution prepared in PBS, incubated for 30 minutes at room temperature for full fixation. Three washes with 1 ml of PBS were completed to ensure excess solution was rinsed away. Glass cover slips were removed and mounted on slides with ProLong Gold Antifade Mountant (ThermoFisher Scientific). The specimen was dried for several minutes and sealed with clear nail polish before visualized under a microscope.
The modest modification came in two parts; the PBS used to replace the media was now doped with a 1000× dilution of CellMask Orange (plasma membrane dye) and the incubation time for the co-stain and dyes was shortened to 10 minutes. These subtle modifications were done to determine if the dyes, 4 and 9, could be used with short incubation periods and to follow the manufacture's staining instructions for CellMask Orange. […] CellMask Orange is a known dye which readily localizes in the plasma membrane. […] The overlap was quantified using a Pearson correlation coefficient calculation with the Colocalization Finder plugin for ImageJ using a single cell image cropped from the images. […]

[6] = 100 μM, 72 hours (FIG. 4: 120 h)
[7] = concentrations needed for standard imaging protocols (range 1 nm to 100 μM), 72 hours

| SMILES | Stokes Shift [1] | λex (excitation maxima) [1] | λem (emission maxima) [1] | φ (fluorescent quantum yield, single point method) [1] | distribution of emission in the cell (HeLa cells [2]) | log εmax (maximum molar extinction coefficient) [3] | molar absorptivity [3] | λabs (absorbance maxima) [3] | toxicity (HeLa cells [4]; [6]) | toxicity (HeLa cells [4]; [7]) | cellular localization (HeLa cells [5]) | Pearson correlation coefficient with CellMask Orange (HeLa cells [5]) |
| --- | --- | --- | --- | --- | --- | --- | --- | --- | --- | --- | --- | --- |
| O=C(O)CCCc1ccc2c(c1)-c1ccccc1S2(=O)=O [Compound 4, 4-(5,5-dioxidodibenzo[b,d]thiophen-2-yl)butanoic acid] | 38 nm | 244 nm | 359 nm | 0.4 | stronger emission from the center of the cell | 3.71 M^−1 cm^−1 | 51,700 M^−1cm^−1 | 244 nm | display toxicity | neither dye displayed toxicity | localize in the plasma membrane | 0.66 |
| CCCCCCCCc1ccc2c(c1)-c1cc(CCCC(=O)O)ccc1S2(=O)=O [Compound 9, 4-(8-octyl-5,5-dioxidodibenzo[b,d]thiophen-2-yl)butanoic acid] | 38 nm | 248 nm | 357 nm | 0.67 | more extranuclear emission | 3.81 M^−1 cm^−1 | 66,000 M^−1cm^−1 | 247 nm | display toxicity | neither dye displayed toxicity | localize in the plasma membrane | 0.81 |
